This is an account of results in the Biogen ADME set (Fang et al. 2023).

The conditions of the series: for aqueous solubility: pH 6.8.

Values after ≈ are worked out from the molar mass of the structure shown.

As to `Cc1nn(C)c(C)c1CCC(=O)N1CCCc2ncccc21`, the MDR1-MDCK efflux ratio came to 22.7; the intrinsic clearance, human liver microsomes worked out at 79.9 mL/min/kg; the intrinsic clearance, rat liver microsomes is 449 mL/min/kg; the aqueous solubility amounted to 54.2 µg/mL (≈ 182 µM).
Turning to `COc1cc(CNCCN2CCOCC2)cc(Cl)c1OCc1ccccc1`, the MDR1-MDCK efflux ratio was found to be 1.94; the intrinsic clearance, human liver microsomes is 46.4 mL/min/kg; the intrinsic clearance, rat liver microsomes turned out to be 330 mL/min/kg; the aqueous solubility came to 53.5 µg/mL (≈ 137 µM).
`Oc1cccc(CN2CCN(c3ncc(Br)cn3)CC2)c1`: the intrinsic clearance, human liver microsomes came out at 29.3 mL/min/kg; the intrinsic clearance, rat liver microsomes was determined as 303 mL/min/kg; the aqueous solubility stood at 4.95 µg/mL (≈ 14.2 µM).
For the compound `Cc1ccc(C(=O)N(C)C)cc1NS(C)(=O)=O`, the MDR1-MDCK efflux ratio worked out at 8.3; the intrinsic clearance, human liver microsomes is at most 4.74 mL/min/kg; the intrinsic clearance, rat liver microsomes is at most 10.7 mL/min/kg; the aqueous solubility stood at 50.3 µg/mL (≈ 196 µM).
Consider `O=C(C1CCC1)N1CCC[C@H]1Cn1nnc(-c2cccs2)n1`, for which the MDR1-MDCK efflux ratio amounted to 0.712 and the intrinsic clearance, rat liver microsomes was 4750 mL/min/kg.
With `Cc1cc(CSCc2ccc(C#N)cc2)no1`, the intrinsic clearance, human liver microsomes was determined as 76.4 mL/min/kg and the intrinsic clearance, rat liver microsomes amounted to 1010 mL/min/kg.
As to `O=C(Cc1ccc(Cl)cc1)NCc1ccncc1`, the MDR1-MDCK efflux ratio stood at 0.772; the intrinsic clearance, human liver microsomes was at most 4.74 mL/min/kg; the intrinsic clearance, rat liver microsomes was 35.9 mL/min/kg; the aqueous solubility worked out at 51.6 µg/mL (≈ 198 µM).
As for `Cc1cccc(/C=N/Nc2cc(N3CCOCC3)nc(OCCc3ccccn3)n2)c1`, the MDR1-MDCK efflux ratio was 0.917; the fraction unbound, human plasma was 0.00283; the fraction unbound, rat plasma came out at 0.0053; the intrinsic clearance, human liver microsomes was determined as 130 mL/min/kg.
As for `CCCCc1nc2cc(/C=C/C(=O)NO)ccc2n1CCN(CC)CC`, the MDR1-MDCK efflux ratio was determined as 28.3; the intrinsic clearance, human liver microsomes was at most 4.74 mL/min/kg; the intrinsic clearance, rat liver microsomes came to 366 mL/min/kg; the aqueous solubility was found to be 57.5 µg/mL (≈ 160 µM).
As to `CCOC(=O)c1cccnc1SCc1cccnc1`, the MDR1-MDCK efflux ratio worked out at 0.646; the intrinsic clearance, human liver microsomes was found to be 293 mL/min/kg; the intrinsic clearance, rat liver microsomes turned out to be 1260 mL/min/kg.
Take `Cc1cc(F)c(C(=O)Nc2cccc(-c3nncn3C(C)C)n2)cc1-n1cnc(C2CC2)c1`: the aqueous solubility was 64.8 µg/mL (≈ 145 µM).
Consider `O=c1[nH]c2ccccc2n1C1CCN(Cc2csc(COc3ccc(F)cc3)n2)CC1`, for which the intrinsic clearance, human liver microsomes was 209 mL/min/kg and the intrinsic clearance, rat liver microsomes came out at 1090 mL/min/kg.
As to `COc1cc2c(cc1OC)[C@@H]1CC(=O)[C@@H](CC(C)C)CN1CC2`, the MDR1-MDCK efflux ratio came out at 0.721; the intrinsic clearance, human liver microsomes is 57.8 mL/min/kg; the intrinsic clearance, rat liver microsomes is 330 mL/min/kg.
For `CCn1nc(Cc2ccc(OC)cc2)nc1Cc1sc(C)nc1C`, the MDR1-MDCK efflux ratio is 2.11; the intrinsic clearance, human liver microsomes was 21.4 mL/min/kg; the intrinsic clearance, rat liver microsomes was 233 mL/min/kg; the aqueous solubility was found to be 28.7 µg/mL (≈ 83.9 µM).
For `O=C(Nc1nnc[nH]1)c1ccc(C2SCCCS2)cc1`, the intrinsic clearance, human liver microsomes came to 8.22 mL/min/kg and the intrinsic clearance, rat liver microsomes is 147 mL/min/kg.
The compound `Fc1cc(CCNc2ncnc3sccc23)c2c(c1)COCO2` came in with an intrinsic clearance, human liver microsomes of 218 mL/min/kg and an intrinsic clearance, rat liver microsomes of 2800 mL/min/kg.
`Nc1ccc(N2C(=O)CCCC2=O)cc1`: the aqueous solubility came out at 28 µg/mL (≈ 137 µM).
In turn, `CNC(=O)[C@H]1O[C@@H](n2cnc3c(NCc4cccc(I)c4)ncnc32)[C@H](O)[C@@H]1O` yielded an intrinsic clearance, human liver microsomes of 195 mL/min/kg and an intrinsic clearance, rat liver microsomes of 3690 mL/min/kg.
As for `CCN(C(=O)c1cccc(-n2cccn2)c1)c1ccc(C#N)c(Cl)c1`, the intrinsic clearance, human liver microsomes was determined as 79 mL/min/kg and the intrinsic clearance, rat liver microsomes worked out at 2060 mL/min/kg.
For the compound `Cc1cc(=O)n(C)c2cc(N3C(=O)CC[C@H](NS(=O)(=O)CC(C)C)[C@H]3c3ccc(Cl)cc3)ccc12`, the MDR1-MDCK efflux ratio amounted to 1.48; the intrinsic clearance, human liver microsomes is 370 mL/min/kg; the intrinsic clearance, rat liver microsomes stood at 944 mL/min/kg; the aqueous solubility was 44.4 µg/mL (≈ 86 µM).

Broadly, the aqueous solubility is the dissolved amount per volume that the medium holds. Higher therefore signals much dissolved substance.
